Read-outs that look alike come from different tables or passages of the source.
System: cancer cells
Assay: MTS assay: inhibition of cell growth (formazan absorbance at 492 nm after 72 hours with test compound)
Assay type: cell-based
Details: inhibition class
How it was run: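 DMEM with 1% FBS; cells seeded at 3000/well and grown 18 h at 37 °C, then exposed to compound for 72 h and to MTS/PMS for 4 h. IC50 is the concentration giving a 50% absorbance drop; grades are % inhibition bands.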

[1] = Homo sapiens, DLD-1 cells, read-out: DLD-1, MTS 72 hours at 10 uM
[2] = Homo sapiens, KATO III cells, read-out: KATO III, MTS 72 hours at 10 uM
[3] = Homo sapiens, MDA-MB-231 cells, read-out: MDA-MB-231, MTS 72 hours at 10 uM
[4] = Homo sapiens, NCI-H1299 cells, read-out: NCI-H1299, MTS 72 hours at 10 uM
[5] = Homo sapiens, PC-3 cells, read-out: PC-3, MTS 72 hours at 10 uM
[6] = PACA-2 cells, read-out: PACA-2, MTS 72 hours at 10 uM

Clc1ccc(CCNc2nc3c4c(n[nH]c4n2)CCN3Cc2ccccc2)cc1 [Compound 61, 6-benzyl-N-[2-(4-chlorophenyl)ethyl]-2,6,7,8-tetrahydro-1,2,3,5,6-pentaazaacenaphthylen-4-amine]
inhibition at 10 µM [1]: 50 to 79%
inhibition at 10 µM [2]: < 50%
inhibition at 10 µM [3]: < 50%
inhibition at 10 µM [4]: 50 to 79%
inhibition at 10 µM [5]: < 50%
inhibition at 10 µM [6]: < 50%

OCCN(Cc1ccccc1)c1nc2c3c(n[nH]c3n1)CCN2Cc1ccccc1 [Compound 62, 2-[benzyl(6-benzyl-2,6,7,8-tetrahydro-1,2,3,5,6-pentaazaacenaphthylen-4-yl)amino]ethanol]
inhibition at 10 µM [1]: < 50%
inhibition at 10 µM [2]: < 50%
inhibition at 10 µM [3]: 50 to 79%
inhibition at 10 µM [4]: < 50%
inhibition at 10 µM [5]: < 50%
inhibition at 10 µM [6]: < 50%

c1ccc(CN2CCc3n[nH]c4nc(NCc5ccc6c(c5)CCO6)nc2c34)cc1 [Compound 63, 6-benzyl-N-(2,3-dihydro-1-benzofuran-5-ylmethyl)-2,6,7,8-tetrahydro-1,2,3,5,6-pentaazaacenaphthylen-4-amine]
inhibition at 10 µM [1]: < 50%
inhibition at 10 µM [2]: < 50%
inhibition at 10 µM [3]: < 50%
inhibition at 10 µM [4]: < 50%
inhibition at 10 µM [5]: < 50%
inhibition at 10 µM [6]: < 50%

CN(CCO)c1nc2c3c(n[nH]c3n1)CCN2Cc1ccccc1 [Compound 64, 2-[(6-benzyl-2,6,7,8-tetrahydro-1,2,3,5,6-pentaazaacenaphthylen-4-yl)(methyl)amino]ethanol]
inhibition at 10 µM [1]: < 50%
inhibition at 10 µM [2]: < 50%
inhibition at 10 µM [3]: < 50%
inhibition at 10 µM [4]: < 50%
inhibition at 10 µM [5]: < 50%
inhibition at 10 µM [6]: < 50%

c1ccc(CN2CCc3n[nH]c4nc(NCCc5ccccn5)nc2c34)cc1 [Compound 65, 6-benzyl-N-(2-pyridin-2-ylethyl)-2,6,7,8-tetrahydro-1,2,3,5,6-pentaazaacenaphthylen-4-amine]
inhibition at 10 µM [1]: < 50%
inhibition at 10 µM [2]: < 50%
inhibition at 10 µM [3]: < 50%
inhibition at 10 µM [4]: < 50%
inhibition at 10 µM [5]: < 50%
inhibition at 10 µM [6]: < 50%

c1ccc(CN2CCc3n[nH]c4nc(NCCc5ccc(-c6ccccc6)cc5)nc2c34)cc1 [Compound 66, 6-benzyl-N-(2-biphenyl-4-ylethyl)-2,6,7,8-tetrahydro-1,2,3,5,6-pentaazaacenaphthylen-4-amine]
inhibition at 10 µM [1]: 50 to 79%
inhibition at 10 µM [2]: < 50%
inhibition at 10 µM [3]: < 50%
inhibition at 10 µM [4]: < 50%
inhibition at 10 µM [5]: < 50%
inhibition at 10 µM [6]: 50 to 79%

c1ccc(CN2CCc3n[nH]c4nc(NCC5CCCCCC5)nc2c34)cc1 [Compound 67, 6-benzyl-N-(cycloheptylmethyl)-2,6,7,8-tetrahydro-1,2,3,5,6-pentaazaacenaphthylen-4-amine]
inhibition at 10 µM [1]: < 50%
inhibition at 10 µM [2]: < 50%
inhibition at 10 µM [3]: < 50%
inhibition at 10 µM [4]: 50 to 79%
inhibition at 10 µM [5]: < 50%
inhibition at 10 µM [6]: 50 to 79%

CC(=O)NCCNc1nc2c3c(n[nH]c3n1)CCN2Cc1ccccc1 [Compound 68, N-{2-[(6-benzyl-2,6,7,8-tetrahydro-1,2,3,5,6-pentaazaacenaphthylen-4-yl)amino]ethyl}acetamide]
inhibition at 10 µM [1]: < 50%
inhibition at 10 µM [2]: < 50%
inhibition at 10 µM [3]: < 50%
inhibition at 10 µM [4]: < 50%
inhibition at 10 µM [5]: < 50%
inhibition at 10 µM [6]: < 50%

CC(O)CNc1nc2c3c(n[nH]c3n1)CCN2Cc1ccccc1 (stereo not drawn) [Compound 69, 1-[(6-benzyl-2,6,7,8-tetrahydro-1,2,3,5,6-pentaazaacenaphthylen-4-yl)amino]propan-2-ol]
inhibition at 10 µM [1]: < 50%
inhibition at 10 µM [2]: < 50%
inhibition at 10 µM [3]: < 50%
inhibition at 10 µM [4]: < 50%
inhibition at 10 µM [5]: < 50%
inhibition at 10 µM [6]: < 50%

Clc1ccc(CCNc2nc3c4c(n[nH]c4n2)CCN3Cc2ccccc2)cc1Cl [Compound 70, 6-benzyl-N-[2-(3,4-dichlorophenyl)ethyl]-2,6,7,8-tetrahydro-1,2,3,5,6-pentaazaacenaphthylen-4-amine]
inhibition at 10 µM [1]: > 79%
inhibition at 10 µM [2]: > 79%
inhibition at 10 µM [3]: > 79%
inhibition at 10 µM [4]: > 79%
inhibition at 10 µM [5]: < 50%
inhibition at 10 µM [6]: > 79%

c1ccc(CN2CCc3n[nH]c4nc(NCc5cccc(-c6ccccc6)c5)nc2c34)cc1 [Compound 71, 6-benzyl-N-(biphenyl-3-ylmethyl)-2,6,7,8-tetrahydro-1,2,3,5,6-pentaazaacenaphthylen-4-amine]
inhibition at 10 µM [1]: 50 to 79%
inhibition at 10 µM [2]: 50 to 79%
inhibition at 10 µM [3]: 50 to 79%
inhibition at 10 µM [4]: 50 to 79%
inhibition at 10 µM [5]: < 50%
inhibition at 10 µM [6]: 50 to 79%

O[C@H](CNc1nc2c3c(n[nH]c3n1)CCN2Cc1ccccc1)c1ccccc1 [Compound 72, (1S)-2-[(6-benzyl-2,6,7,8-tetrahydro-1,2,3,5,6-pentaazaacenaphthylen-4-yl)amino]-1-phenylethanol]
inhibition at 10 µM [1]: < 50%
inhibition at 10 µM [2]: < 50%
inhibition at 10 µM [3]: < 50%
inhibition at 10 µM [4]: < 50%
inhibition at 10 µM [5]: < 50%
inhibition at 10 µM [6]: < 50%

Cc1cccc2c(CCNc3nc4c5c(n[nH]c5n3)CCN4Cc3ccccc3)c[nH]c12 [Compound 73, 6-benzyl-N-[2-(7-methyl-1H-indol-3-yl)ethyl]-2,6,7,8-tetrahydro-1,2,3,5,6-pentaazaacenaphthylen-4-amine]
inhibition at 10 µM [1]: > 79%
inhibition at 10 µM [2]: > 79%
inhibition at 10 µM [3]: 50 to 79%
inhibition at 10 µM [4]: > 79%
inhibition at 10 µM [5]: < 50%
inhibition at 10 µM [6]: 50 to 79%

c1ccc(CN2CCc3n[nH]c4nc(N5CCN(CCc6ccncc6)CC5)nc2c34)cc1 [Compound 74, 6-benzyl-4-[4-(2-pyridin-4-ylethyl)piperazin-1-yl]-2,6,7,8-tetrahydro-1,2,3,5,6-pentaazaacenaphthylene]
inhibition at 10 µM [1]: < 50%
inhibition at 10 µM [2]: < 50%
inhibition at 10 µM [3]: < 50%
inhibition at 10 µM [4]: < 50%
inhibition at 10 µM [5]: < 50%
inhibition at 10 µM [6]: < 50%

OCCN1CCN(c2nc3c4c(n[nH]c4n2)CCN3Cc2ccccc2)CC1 [Compound 75, 2-[4-(6-benzyl-2,6,7,8-tetrahydro-1,2,3,5,6-pentaazaacenaphthylen-4-yl)piperazin-1-yl]ethanol]
inhibition at 10 µM [1]: < 50%
inhibition at 10 µM [2]: < 50%
inhibition at 10 µM [3]: < 50%
inhibition at 10 µM [4]: < 50%
inhibition at 10 µM [5]: < 50%
inhibition at 10 µM [6]: < 50%

c1ccc(CN2CCc3n[nH]c4nc(N5CCCCC5)nc2c34)cc1 [Compound 76, 6-benzyl-4-piperidin-1-yl-2,6,7,8-tetrahydro-1,2,3,5,6-pentaazaacenaphthylene]
inhibition at 10 µM [1]: < 50%
inhibition at 10 µM [2]: < 50%
inhibition at 10 µM [3]: < 50%
inhibition at 10 µM [4]: < 50%
inhibition at 10 µM [5]: < 50%
inhibition at 10 µM [6]: < 50%

Cc1cccc(CCNc2nc3c4c(n[nH]c4n2)CCN3Cc2ccccc2)c1 [Compound 77, 6-benzyl-N-[2-(3-methylphenyl)ethyl]-2,6,7,8-tetrahydro-1,2,3,5,6-pentaazaacenaphthylen-4-amine]
inhibition at 10 µM [1]: < 50%
inhibition at 10 µM [2]: < 50%
inhibition at 10 µM [3]: < 50%
inhibition at 10 µM [4]: 50 to 79%
inhibition at 10 µM [5]: < 50%
inhibition at 10 µM [6]: < 50%

COCC(C)Nc1nc2c3c(n[nH]c3n1)CCN2Cc1ccccc1 (stereo not drawn) [Compound 78, 6-benzyl-N-(2-methoxy-1-methylethyl)-2,6,7,8-tetrahydro-1,2,3,5,6-pentaazaacenaphthylen-4-amine]
inhibition at 10 µM [1]: < 50%
inhibition at 10 µM [2]: < 50%
inhibition at 10 µM [3]: > 79%
inhibition at 10 µM [4]: < 50%
inhibition at 10 µM [5]: > 79%
inhibition at 10 µM [6]: < 50%

c1ccc(CN2CCc3n[nH]c4nc(NCc5ccc(-c6ccccc6)cc5)nc2c34)cc1 [Compound 79, 6-benzyl-N-(biphenyl-4-ylmethyl)-2,6,7,8-tetrahydro-1,2,3,5,6-pentaazaacenaphthylen-4-amine]
inhibition at 10 µM [1]: > 79%
inhibition at 10 µM [2]: 50 to 79%
inhibition at 10 µM [3]: 50 to 79%
inhibition at 10 µM [4]: > 79%
inhibition at 10 µM [5]: < 50%
inhibition at 10 µM [6]: < 50%

CN1CCN(c2nc3c4c(n[nH]c4n2)CCN3Cc2ccccc2)CC1 [Compound 80, 6-benzyl-4-(4-methylpiperazin-1-yl)-2,6,7,8-tetrahydro-1,2,3,5,6-pentaazaacenaphthylene]
inhibition at 10 µM [1]: < 50%
inhibition at 10 µM [2]: < 50%
inhibition at 10 µM [3]: < 50%
inhibition at 10 µM [4]: < 50%
inhibition at 10 µM [5]: < 50%
inhibition at 10 µM [6]: < 50%

CN(CCc1ccccc1)c1nc2c3c(n[nH]c3n1)CCN2Cc1ccccc1 [Compound 81, 6-benzyl-N-methyl-N-(2-phenylethyl)-2,6,7,8-tetrahydro-1,2,3,5,6-pentaazaacenaphthylen-4-amine]
inhibition at 10 µM [1]: < 50%
inhibition at 10 µM [2]: < 50%
inhibition at 10 µM [3]: < 50%
inhibition at 10 µM [4]: < 50%
inhibition at 10 µM [5]: < 50%
inhibition at 10 µM [6]: < 50%

COc1cc(CNc2nc3c4c(n[nH]c4n2)CCN3Cc2ccccc2)cc(OC)c1 [Compound 82, 6-benzyl-N-(3,5-dimethoxybenzyl)-2,6,7,8-tetrahydro-1,2,3,5,6-pentaazaacenaphthylen-4-amine]
inhibition at 10 µM [1]: < 50%
inhibition at 10 µM [2]: < 50%
inhibition at 10 µM [3]: < 50%
inhibition at 10 µM [4]: < 50%
inhibition at 10 µM [5]: < 50%
inhibition at 10 µM [6]: < 50%

O=C(CN1CCN(c2nc3c4c(n[nH]c4n2)CCN3Cc2ccccc2)CC1)N1CCCC1 [Compound 83, 6-benzyl-4-[4-(2-oxo-2-pyrrolidin-1-ylethyl)piperazin-1-yl]-2,6,7,8-tetrahydro-1,2,3,5,6-pentaazaacenaphthylene]
inhibition at 10 µM [1]: < 50%
inhibition at 10 µM [2]: < 50%
inhibition at 10 µM [3]: < 50%
inhibition at 10 µM [4]: < 50%
inhibition at 10 µM [5]: < 50%
inhibition at 10 µM [6]: < 50%
